Source: patent US7700375B2, “Fluorescent labeling of specific protein targets in vitro and in vivo” (Valorisation-Recherche, LP, priority 2004, dated 2010)
In brackets after ≈: the same amount, converted by molar mass.

Tests used:
[1] = Fluorescence spectral properties of fluorogens and their ethanethiol adducts; type: physicochemical; settings: 10:90 DMSO: water
Method: For the application of this fluorogenic reaction to the detection of thiols and dithiols, two important criteria are the fluorescence intensity of the thiol addition product and the ratio of its fluorescence compared to its parent fluorogen. We studied the effect of electron withdrawing and donating substituants on these criteria by preparing the derivatives of fluorogen 4 shown in Scheme 1. Fluorogen 5, bearing an electron withdrawing ester group, was prepared according to a protocol similar to that used for fluorogen 4, but using an ester-substituted maleic anhydride derived by oxidation of dimethyl L-tartrate according to a published procedure.^31 Fluorogen 6 bears an electron donating methyl group and was obtained in similar yield by adaptation of the standard literature protocol,^25 using citraconic anhydride. The reaction of 5 and 6 with ethanethiol in DMSO led to the formation of thiol adducts 8 and 9, whose fluorescence was characterized as shown in Table 1. Even from this small series, certain tendencies are apparent. Increasing the electron donating capacity of the substituent appears to have a significant effect on the absorbance maximum corresponding to the wavelength of excitation, increasing by 37 nm from 8 to 9. Although the emission wavelength increases very slightly over the same series, the net effect on the Stokes shift is a significant decrease with increasing electron donating capacity of the substituent.
(§1) Comparison of the fluorescent properties^34 of the four different parent fluorogens (and their corresponding thiol adducts) studied herein (see Table 2) substantiates our retention of compounds 13 and 20 as candidates for further tests with proteins.
The following material were obtained from Aldrich and were used without further purification: 2-hydroxy-5-nitrobenzaldehyde, N-acetylglycine, maleic anhydride, p-nitrophenylacetic acid, L-aspartic acid dimethyl ester hydrochloride, citraconic anhydride, dimethyl L-tartrate, dimethyl malonate. All reactions were carried out under an atmosphere of dry nitrogen employing conventional bench-top techniques except for reactions with thiols. ^13C-NMR and ^1H-NMR spectra were recorded on AMXR400 or AMX300 spectrometers and were referenced to the residual proton or ^13C signal of the solvent. Mass spectra were determined by FAB+ ionization on an AutoSpecQ spectrometer at the Regional Mass Spectrometry Centre at the Université de Montréal. Infrared spectra were recorded on a Perkin-Elmer (FTIR) spectrometer. Melting points (uncorrected) were determined on a Unimelt Tomas-Hoover or on a Gallenkamp meting point apparatus. Fluorescence spectra were recorded using a Varian Cary Eclipse fluorimeter and gel electrophoresis was carried out on a SpectraPhoresis 100 apparatus.

[2] = target: T1, diCys-Fos (Homo sapiens, UniProt P01100, C204S/L161C); test: Labeling in lysate of E. coli cells expressing diCys-Fos, SDS-PAGE; type: biochemical; settings: overnight at 25° C.
Method: The specificity of the dithiol addition reaction of 20 with diCys-Fos in the presence of other proteins was also confirmed through a simple in vitro experiment. The lysate of E. coli cells expressing diCys-Fos was allowed to react with 20 overnight at 25° C. prior to analysis by SDS-PAGE.

[3] = tested on: COS cells; test: Cytotoxicity, MTT and PI assays; type: cell-based
Method: (§2) Finally, we wished to determine if fluorogens such as 13 and 20 were cytotoxic. […] Furthermore, even at 300 μM 20, the limit of its solubility in cell culture, 70% of COS cells were still viable (FIG. 8). […] The convenience of the application of this fluorescent labeling method is obvious from the low cytoxocity of 20, even at concentrations 30 times greater than those necessary for efficient labeling.

[4] = target: T1, diCys-Fos; test: Protein labeling in living COS cells expressing diCys-Fos fused to RBD of Raf; type: cell-based; design: the C99S mutant of a fragment of Fos; expressed in transfected cells; host or cells: COS cells
Method: The ultimate proof of principle for this method is its successful application to labeling a specific protein in living eukaryotic cells. To test for this potential, our diCys-Fos probe protein was genetically fused to RBD, the Ras-binding domain of Raf, and COS cells were then transfected with the expression plasmid for this fusion protein. A solution of 20 was then added to cultures of COS cells expressing diCys-Fos as well as mock COS cells transfected with an empty expression plasmid.

[5] = target: T1, diCys-Fos; test: Protein labeling in vitro, SDS-PAGE with UV illumination; type: biochemical; design: the C99S mutant of a fragment of Fos; settings: 0.242 mM protein, 0.5 mM of 20 or 0.05 mM of 13, 25° C. overnight
Method: (§3) As mentioned in the introduction, an α-helical protein was designed to bear two cysteine residues, separated by a distance complementary to that between the maleimide groups of the designated fluorogen. The protein chosen as a starting point for this design was the C99S mutant of a fragment of Fos,^21 a known α-helical protein^22 whose recombinant expression has been published.^23 Site-directed mutagenesis was then performed^20,35 to introduce a cysteine residue (L56C), separated by two turns of the α-helical motif from the native Cys49, positioning the protein's only two thiol groups approximately 10 Å apart.^36 Although at higher concentrations, Fos is known to form a homodimer,^22 the distance between the intermolecular cysteine residues in this putative homodimer would render their reaction with a single fluorogen molecule impossible. […]
(§4) Purified mCys-Fos and diCys-Fos were then tested in vitro for their ability to react with fluorogens 13 and 20. After incubation of 0.242 mM protein with 0.5 mM of 20 or 0.05 mM of 13 at 25° C. overnight, glycerol was added and the reaction mixtures were analyzed by SDS-PAGE using UV illumination and then Coomassie blue staining. […]

[6] = Solubility; type: physicochemical
Method: as §1, §2

[7] = target: T2, mCys-Fos (Homo sapiens, UniProt P01100, C204S); test: Protein labeling in vitro, SDS-PAGE with UV illumination; type: biochemical; settings: 0.242 mM protein, 0.5 mM of 20 or 0.05 mM of 13, 25° C. overnight
T2 construct: the C99S mutant of a fragment of Fos; His-tag (N); made in house; host or cells: XL1-blue E. coli
Method: as §3, §4

T1 sequence (P01100 118-211 L161C/C204S limits assumed): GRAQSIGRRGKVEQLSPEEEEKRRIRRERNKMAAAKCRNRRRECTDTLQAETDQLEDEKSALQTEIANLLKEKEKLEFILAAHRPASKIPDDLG
T2 sequence (P01100 118-211 C204S limits assumed): as the sequence (P01100 118-211 L161C/C204S limits assumed) above, with C44L counted along it

Question: With `COC(=O)C[C@@H](C(=O)OC)N1C(=O)c2cc(N3C(=O)C=CC3=O)cc3cc(N4C(=O)C=CC4=O)cc(c23)C1=O` [Compound 20, N-(3,6-Dimaleimidyl-1,8-naphthalyl)-L-aspartic acid dimethyl ester] as the compound, how does the Stokes shift [1] read?
Answer: 67 nm

Question: What about the “λem (emission band)” value [1] of the same compound?
Answer: 525-650 nm

Question: What about the “λem, wavelength corresponding to center of Full Width at Half Maximum of emission band” value [1] of the same compound?
Answer: 578 nm

Question: What about the λexc [1] of the same compound?
Answer: 511 nm

Question: What about the “IF Ratio” value ([1]; ratio of areas under emission bands of fluorogen and thiol adduct) of the same compound?
Answer: 8.5

Question: What about the “selectivity for diCys-Fos in the presence of other cytosolic proteins” value [2] of the same compound?
Answer: selectivity of 20 for its designated target protein

Question: What about the “viable COS cells” value ([3]; 300 μM) of the same compound?
Answer: 70%

Question: And the “concentration with low cytotoxicity relative to that necessary for efficient labeling” value ([3]; COS cells)?
Answer: 30 times

Question: And the “percentage of viable COS cells” value ([3]; concentrations of up to 30 μM)?
Answer: unaffected

Question: What about the “fluorescence of COS cells expressing diCys-Fos vs mock COS cells” value ([4]; 10 μM, 20 minutes, room temperature) of the same compound?
Answer: significant difference in fluorescence

Question: What about the cell permeability ([4]; COS cells) of the same compound?
Answer: confirming the cell permeability

Question: And the “fluorescent labeling of diCys-Fos” value [5]?
Answer: efficiently fluorescently labeled

Question: And the “solubility in water / aqueous DMSO” value [6]?
Answer: soluble in aqueous solutions containing as little as 5% DMSO

Question: What about the solubility ([6]; cell culture, plasma or biological fluid, read-out: limit of solubility in cell culture) of the same compound?
Answer: 300 µM (≈ 159 µg/mL)

Question: What about the “fluorescent labeling of mCys-Fos” value [7] of the same compound?
Answer: is not
